Data taken from the NIST ThermoML archive (doi:10.1021/acs.jced.5b00934).

Conditions: Liquid, Vibrating tube method

CC(C)(C)O [2-methylpropan-2-ol]
Conditions | mass density [kg/m3]
333.15 K, 50000 kPa | 788.7
333.15 K, 52050 kPa | 790.2
333.15 K, 55010 kPa | 792.3
333.15 K, 57996 kPa | 794.3
333.15 K, 60003 kPa | 795.6
338.15 K, 100 kPa | 737.1
338.15 K, 309 kPa | 737.3
338.15 K, 505 kPa | 737.6
338.15 K, 898 kPa | 738.1
338.15 K, 1003 kPa | 738.2
338.15 K, 2001 kPa | 739.5
338.15 K, 3005 kPa | 740.8
338.15 K, 5003 kPa | 743.2
338.15 K, 7014 kPa | 745.6
338.15 K, 9004 kPa | 747.9
338.15 K, 10002 kPa | 749
338.15 K, 11998 kPa | 751.2
338.15 K, 14999 kPa | 754.4
338.15 K, 17997 kPa | 757.5
338.15 K, 20007 kPa | 759.4
338.15 K, 21999 kPa | 761.4
338.15 K, 25000 kPa | 764.2
338.15 K, 27994 kPa | 766.9
338.15 K, 30011 kPa | 768.6
338.15 K, 32005 kPa | 770.4
338.15 K, 32998 kPa | 771.2
338.15 K, 33033 kPa | 771.2
338.15 K, 34007 kPa | 772
338.15 K, 35000 kPa | 772.9
338.15 K, 38031 kPa | 775.3
338.15 K, 40024 kPa | 776.9
338.15 K, 41998 kPa | 778.5
338.15 K, 43195 kPa | 779.4
338.15 K, 44574 kPa | 780.4
338.15 K, 46152 kPa | 781.6
338.15 K, 48333 kPa | 783.3
338.15 K, 50050 kPa | 784.5
338.15 K, 52462 kPa | 786.3
338.15 K, 56690 kPa | 789.2
338.15 K, 60003 kPa | 791.5
343.15 K, 99 kPa | 731
343.15 K, 305 kPa | 731.3
343.15 K, 503 kPa | 731.6
343.15 K, 901 kPa | 732.1
343.15 K, 1002 kPa | 732.2
343.15 K, 2000 kPa | 733.6
343.15 K, 3001 kPa | 734.9
343.15 K, 5005 kPa | 737.5
343.15 K, 7004 kPa | 740
343.15 K, 9033 kPa | 742.4
343.15 K, 10020 kPa | 743.6
343.15 K, 12001 kPa | 745.8
343.15 K, 15002 kPa | 749.1
343.15 K, 18001 kPa | 752.3
343.15 K, 20018 kPa | 754.4
343.15 K, 21994 kPa | 756.4
343.15 K, 25026 kPa | 759.3
343.15 K, 27993 kPa | 762.1
343.15 K, 30004 kPa | 763.9
343.15 K, 32000 kPa | 765.7
343.15 K, 32963 kPa | 766.6
343.15 K, 33001 kPa | 766.6
343.15 K, 34002 kPa | 767.5
343.15 K, 35003 kPa | 768.3
343.15 K, 38027 kPa | 770.8
343.15 K, 39998 kPa | 772.5
343.15 K, 42000 kPa | 774.1
348.15 K, 98 kPa | 725.1
348.15 K, 295 kPa | 725.3
348.15 K, 498 kPa | 725.7
348.15 K, 898 kPa | 726.2
348.15 K, 1004 kPa | 726.4
348.15 K, 2006 kPa | 727.8
348.15 K, 3001 kPa | 729.2
348.15 K, 5005 kPa | 731.9
348.15 K, 6999 kPa | 734.5
348.15 K, 9012 kPa | 737
348.15 K, 10014 kPa | 738.2
348.15 K, 12003 kPa | 740.6
348.15 K, 14999 kPa | 744
348.15 K, 17999 kPa | 747.3
348.15 K, 20000 kPa | 749.4
348.15 K, 21998 kPa | 751.5
348.15 K, 24996 kPa | 754.4
348.15 K, 27995 kPa | 757.3
348.15 K, 30045 kPa | 759.3
348.15 K, 32000 kPa | 761
348.15 K, 32878 kPa | 761.8
348.15 K, 33012 kPa | 761.9
348.15 K, 34000 kPa | 762.8
348.15 K, 35001 kPa | 763.7
348.15 K, 38001 kPa | 766.3
348.15 K, 39999 kPa | 768
348.15 K, 41997 kPa | 769.6
348.15 K, 44999 kPa | 772
353.15 K, 99 kPa | 719
353.15 K, 300 kPa | 719.3
353.15 K, 501 kPa | 719.6
353.15 K, 897 kPa | 720.2
353.15 K, 1000 kPa | 720.3
353.15 K, 2000 kPa | 721.8
353.15 K, 2999 kPa | 723.2
353.15 K, 4999 kPa | 726.1
353.15 K, 6999 kPa | 728.8
353.15 K, 8998 kPa | 731.4
353.15 K, 10003 kPa | 732.6
353.15 K, 11997 kPa | 735.1
353.15 K, 15001 kPa | 738.7
353.15 K, 17999 kPa | 742.1
353.15 K, 20000 kPa | 744.2
353.15 K, 21999 kPa | 746.4
353.15 K, 24997 kPa | 749.4
353.15 K, 27999 kPa | 752.5
353.15 K, 30004 kPa | 754.4
353.15 K, 32003 kPa | 756.3
353.15 K, 32985 kPa | 757.1
353.15 K, 33002 kPa | 757.2
353.15 K, 34000 kPa | 758.1
353.15 K, 35004 kPa | 759
353.15 K, 38477 kPa | 762.2
353.15 K, 40002 kPa | 763.4
353.15 K, 42035 kPa | 765.1
353.15 K, 45022 kPa | 767.6
353.15 K, 48092 kPa | 770.1
353.15 K, 49989 kPa | 771.5
358.15 K, 103 kPa | 712.8
358.15 K, 293 kPa | 713.1
358.15 K, 498 kPa | 713.4
358.15 K, 899 kPa | 714
358.15 K, 1003 kPa | 714.2
358.15 K, 2008 kPa | 715.7
358.15 K, 3003 kPa | 717.3
358.15 K, 5003 kPa | 720.2
358.15 K, 7003 kPa | 723
358.15 K, 9001 kPa | 725.8
358.15 K, 9998 kPa | 727.1
358.15 K, 12010 kPa | 729.7
358.15 K, 14999 kPa | 733.3
358.15 K, 18040 kPa | 736.9
358.15 K, 19997 kPa | 739.1
358.15 K, 21995 kPa | 741.3
358.15 K, 25017 kPa | 744.5
358.15 K, 27994 kPa | 747.6
358.15 K, 29991 kPa | 749.6
358.15 K, 32001 kPa | 751.5
358.15 K, 32997 kPa | 752.5
358.15 K, 33015 kPa | 752.5
358.15 K, 34056 kPa | 753.5
358.15 K, 35075 kPa | 754.4
358.15 K, 37998 kPa | 757
358.15 K, 40001 kPa | 758.8
358.15 K, 42007 kPa | 760.6
358.15 K, 45002 kPa | 763.1
358.15 K, 47995 kPa | 765.5
358.15 K, 50001 kPa | 767
363.15 K, 299 kPa | 706.4
363.15 K, 502 kPa | 706.8
363.15 K, 901 kPa | 707.4
363.15 K, 1002 kPa | 707.6
363.15 K, 2001 kPa | 709.2
363.15 K, 3005 kPa | 710.8
363.15 K, 5002 kPa | 713.9
363.15 K, 7023 kPa | 716.9
363.15 K, 9001 kPa | 719.7
363.15 K, 10009 kPa | 721.1
363.15 K, 12038 kPa | 723.8
363.15 K, 14998 kPa | 727.6
363.15 K, 18000 kPa | 731.3
363.15 K, 20033 kPa | 733.7
363.15 K, 22005 kPa | 735.9
363.15 K, 25000 kPa | 739.2
363.15 K, 28009 kPa | 742.4
363.15 K, 30011 kPa | 744.4
363.15 K, 32033 kPa | 746.5
363.15 K, 32982 kPa | 747.4
363.15 K, 33012 kPa | 747.4
363.15 K, 34035 kPa | 748.4
363.15 K, 34999 kPa | 749.3
363.15 K, 37998 kPa | 752.1
363.15 K, 39147 kPa | 753.2
363.15 K, 40009 kPa | 753.9
363.15 K, 41998 kPa | 755.7
363.15 K, 44999 kPa | 758.4
363.15 K, 47996 kPa | 760.9
363.15 K, 49998 kPa | 762.5
363.15 K, 52002 kPa | 764.2
363.15 K, 55003 kPa | 766.6
363.15 K, 57998 kPa | 768.9
363.15 K, 59999 kPa | 770.4
363.16 K, 38458 kPa | 752.5
